Experimental findings from patent US20200360405A1, “COMPOSITIONS AND METHODS FOR REDUCING LOCAL AND SYSTEMIC RISKS OF ENVENOMATION” (THE HENRY M. JACKSON FONDATION FOR THE ADVANCEMENT OF …, priority 2017, published 2020) are described below.

For experiment [1], the target named is N. kaouthia crude venom PLA2. The experiment can be described thus: Phospholipase A2 activity assay (EnzChek), N. kaouthia crude venom. The experiment is classed as biochemical, Naja naja kaouthia. The conditions noted are these: for IC50 / PLA2 ≥90% inhibition (concentration), N. kaouthia venom: 0.4 μg venom, 10 minute time point, Example 1; for Effect on N. kaouthia venom PLA2 activity (in words): venom pre-incubated 5-10 minutes with increasing concentrations, Example 2. The method, then: (§1) EnzChek® Phospholipase A 2 assay kits were used according to the manufacturer's recommendations. Briefly, equal volumes of venom solutions were incubated with PLA2 substrate and fluorometric analysis was performed over the course of 20 minutes. Venom activity was determined by creating a standard curve based upon PLA2 from honey bee venom.
(§2) For inhibition experiments, 0.4 μg N. kaouthia or 0.2 μg V. russelli venom was pre-incubated with the specified spreading factor inhibitor(s) for 5-10 minutes before adding the reaction to an equal volume of PLA2 substrate. Fluorometric analysis was performed over 20 minutes, with the 10 minute time point values being used to determine the percent inhibition. Background values were subtracted from all samples, and data was normalized to the venom-only controls. Excitation and emission wavelengths for these experiments were 485(20) nm and 528(20) nm, respectively.
(§3) Data are shown as the mean and standard deviation (SD) of at least duplicate readings. The half maximal inhibitory concentration (IC50) values were determined using GraphPad Prism. Table 1 summarizes the inhibitory activity of various spreading factor inhibitors for N. kaouthia and V. russelli crude venom extracts.
(§4) Snake venom samples were incubated with increasing concentrations of sodium aurothiomalate and/or doxycycline for 5-10 minutes prior to assaying the venom hyaluronidase, gelatinase, and PLA2 activities. As observed in Example 1, sodium aurothiomalate inhibited N. kaouthia and V. russeiii venom hyaluronidase activities, whereas doxycycline inhibited the venom gelatinase and PLA2 activities.

Experiment [2] deals with V. russelli crude venom PLA2. Put plainly: Phospholipase A2 activity assay (EnzChek), V. russelli crude venom. As to conditions: for IC50 / PLA2 ≥90% inhibition (concentration), V. russelli venom: 0.2 μg venom, 10 minute time point, Example 1; for Effect on V. russelli venom PLA2 activity (in words): venom pre-incubated 5-10 minutes with increasing concentrations, Example 2. The experiment is classed as biochemical, Vipera russelli. The method, then:
as §1, §2, §3, §4

The subject of experiment [3] is V. russelli crude venom hyaluronidase. The experiment can be described thus: Hyaluronidase activity assay, V. russelli crude venom. The experiment is classed as biochemical, Vipera russelli. The conditions noted are these: for Effect on V. russelli venom hyaluronidase activity (in words): venom pre-incubated 5-10 minutes with increasing concentrations, Example 2. As for the experimental part: (§5) Hyaluronidase activity was assessed using the Enzymatic Assay of Hyaluronidase (3.2.1.35) protocol from Sigma Aldrich. Briefly, equal volumes of venom were incubated with 0.03% hyaluronic acid solution (0.03% (w/v) hyaluronic acid in 300 mM sodium phosphate (approximately pH 5.35)) for 1.5 hours at 37° C. A reaction aliquot was then added to a 5-fold volume of acidic albumin solution (24 mM sodium acetate, 70 mM acetic acid, 0.1% BSA adjusted to approximately pH 3.75), allowed to stand for 10 minutes, and then absorbance at 600 nm was measured. Data was converted to percent transmission (% T) and adjusted for background signals. Venom hyaluronidase activities were determined by creating a standard curve with bovine testes hyaluronidase.
(§6) For inhibition experiments, 6.75 μg N. kaouthia or 15 μg V. russelli venom was pre-incubated with the specified spreading factor inhibitor(s) for 5-10 minutes before adding an equal volume of the reaction to the hyaluronic acid solution. Data was converted to % T, adjusted for background signals, and then normalized to the venom-only controls.
as §3, §4

Experiment [4] concerns N. kaouthia crude venom gelatinase. Put plainly: Gelatinase activity assay (EnzChek), N. kaouthia crude venom. The experiment is classed as biochemical, Naja naja kaouthia. As for the experimental part:
(§7) EnzChek® Gelatinase/Collagenase assay kits were used according to the manufacturer's recommendations. Briefly, equal volumes of venom solutions were incubated with 1.0 mg/mL DQ gelatin and fluorometric analysis was performed for at least three hours, using excitation and emission wavelengths of 485(20) nm and 528(20) nm, respectively. Venom activity was determined by creating a standard curve with Clostridium histolyticum collagenase activity.
(§8) For inhibition experiments, 30 μg N. kaouthia or V. russelli venom was pre-incubated with the specified spreading factor inhibitor(s) for 5-10 minutes before adding an equal volume of the reaction to the 1.0 mg/mL DQ gelatin solution. Fluorometric readings were measured over the course of five hours, with the five hour time points being used to determine the percent inhibition. Data was adjusted for background signals and then normalized to the venom-only controls.
as §3, §4

The subject of experiment [5] is N. kaouthia crude venom hyaluronidase. The experiment can be described thus: Hyaluronidase activity assay, N. kaouthia crude venom. The experiment is classed as biochemical, Naja naja kaouthia. The conditions noted are these: for Effect on N. kaouthia venom hyaluronidase activity (in words): venom pre-incubated 5-10 minutes with increasing concentrations, Example 2. The method, then:
as §5, §6, §3, §4

Experiment [6] concerns the target V. russelli crude venom gelatinase. Put plainly: Gelatinase activity assay (EnzChek), V. russelli crude venom. The experiment is classed as biochemical, Vipera russelli. As for the experimental part: as §7, §8, §3, §4
Where [7] appears, read: 15 μg venom, pre-incubation 5-10 min, Example 1.
[8] abbreviates: asterisk: data obtained according to Example 2, five hour time point.
[9] abbreviates: 6.75 μg venom, pre-incubation 5-10 min, Example 1.
The mark [10] stands for this setting: 30 μg venom, five hour time point, Example 1.
[11] abbreviates: venom pre-incubated 5-10 minutes with increasing concentrations, Example 2.

SMILES strings stand for the structures. Bounds are passed on as bounds.

Consider `CC1=C(CC/C(C)=C/CCC2=CC[C@H](C3=CC(=O)O[C@H]3O)O[C@H]2O)C(C)(C)CCC1` [Manoalide], for which, in experiment [1], the IC50 worked out at 777 µM and the “PLA2 ≥90% inhibition (concentration), N. kaouthia venom” value is over 1000 µM. In experiment [2], the midpoint of inhibition, the IC50, lay at 31.4 µM and the “PLA2 ≥90% inhibition (concentration), V. russelli venom” value came out at 1000 µM.

On to `O=C([O-])CC([S-])C(=O)[O-].[Au+].[Na+].[Na+]` (stereo not drawn) [Sodium aurothiomalate, sodium aurothiomalate], for which, in experiment [1], the “Effect on N. kaouthia venom PLA2 activity (in words)” value was “moderate, but statistically significant increase”. Besides, in experiment [3] (setting [7]), the “Hyaluronidase ≥90% inhibition (concentration), V. russelli venom” value is 373.25 µM and the IC50 amounted to 147 µM. In experiment [3], the “Effect on V. russelli venom hyaluronidase activity (in words)” value was “inhibited”. In experiment [4] (setting [8]), the “Gelatinase ≥90% inhibition (concentration), N. kaouthia venom” value is over 208 µM and the half-maximal inhibitory concentration (IC50) was 47 ± 30.4 µM. The “Effect on V. russelli venom PLA2 activity (in words)” value in experiment [2] is reported as “moderate, but statistically significant increase”. Further, in experiment [5] (setting [9]), the “Hyaluronidase ≥90% inhibition (concentration), N. kaouthia venom” value came to 136.30 µM and the IC50 turned out to be 42 µM. Further, the “Effect on N. kaouthia venom hyaluronidase activity (in words)” value in experiment [5] was “inhibited”.

As for `Cc1ccc(C(=O)Nc2ccc(S(=O)(=O)O)c3cc(S(=O)(=O)O)cc(S(=O)(=O)O)c23)cc1NC(=O)c1cccc(NC(=O)Nc2cccc(C(=O)Nc3cc(C(=O)Nc4ccc(S(=O)(=O)O)c5cc(S(=O)(=O)O)cc(S(=O)(=O)O)c45)ccc3C)c2)c1` [Suramin], in experiment [1], the midpoint of inhibition, the IC50, lay at 1520 ± 528 µM and the “PLA2 ≥90% inhibition (concentration), N. kaouthia venom” value is 12500 µM. Also, in experiment [2], the IC50 stood at 2010 µM and the “PLA2 ≥90% inhibition (concentration), V. russelli venom” value came out at 12500 µM.

Consider `CC(=O)N[C@@H](CS)C(=O)O` [N-acetyl-L-cysteine], for which, in experiment [1], the “Effect on N. kaouthia venom PLA2 activity (in words)” value was “consistently enhanced”. Further, in experiment [6] (setting [10]), the “Gelatinase IC50, V. russelli venom” value was determined as 1870 µg/mL and the “Gelatinase ≥90% inhibition (concentration), V. russelli venom” value worked out at 2.31 mg/mL. Also, the “Effect on V. russelli venom gelatinase activity (in words)” value in experiment [6] (setting [11]) is reported as “inhibited”. In addition, in experiment [3] (setting [7]), the “Hyaluronidase IC50, V. russelli venom” value is about 4989 µg/mL and the “Hyaluronidase ≥90% inhibition (concentration), V. russelli venom” value lay within 6.0 to 9.6 mg/mL. Besides, the “Effect on V. russelli venom hyaluronidase activity (in words)” value in experiment [3] is “inhibited”. For the same compound, in experiment [4] (setting [10]), the “Gelatinase IC50, N. kaouthia venom” value turned out to be 1850 µg/mL and the “Gelatinase ≥90% inhibition (concentration), N. kaouthia venom” value is recorded as 1.32 mg/mL. Also, in experiment [4] (setting [11]), the “Effect on N. kaouthia venom gelatinase activity (in words)” value is listed as “inhibited”. Besides, the “Enhancement of PLA2 activities in V. russelli venom” value in experiment [2] (N-acetyl-L-cysteine alone) is listed as 3-4 fold. Further, in experiment [2], the “Effect on V. russelli venom PLA2 activity (in words)” value is “consistently enhanced”. Besides, in experiment [5] (setting [9]), the “Hyaluronidase IC50, N. kaouthia venom” value was determined as 4503 µg/mL and the “Hyaluronidase ≥90% inhibition (concentration), N. kaouthia venom” value stood at 4.8 mg/mL. Also, in experiment [5], the “Effect on N. kaouthia venom hyaluronidase activity (in words)” value is given as “inhibited”.

In general, IC50 refers to the concentration needed to halve the response being measured. Low readings indicate inhibition by little substance, high ones a need for much substance.
